Source: patent publication US20130071931A1, “PROCESS FOR HEPATIC DIFFERENTIATION FROM INDUCED HEPATIC STEM CELLS, AND INDUCED HEPATIC PROGENITOR CELLS DIFFERENTIATED THEREBY” (NATIONAL CANCER CENTER, priority 2011, published 2013)

Assays:
[1] = system: human induced hepatic stem cells AFB1-1; experiment: AFP in culture supernatant (Example 13); assay type: cell-based; conditions: cell sample No. 835: 0.5 μM A-83-01/ReproStem (bFGF-free), no feeder cells, Matrigel
Description: The medium was replaced everyday with a fresh human ES/iPS cell medium (mTeSR1) to continue culture until reaching 50-80% confluence per dish. […] The resultant cell sample is referred to as “No. 835”.

[2] = system: human induced hepatic stem cells AFB1-1; experiment: Quantitative RT-PCR of marker genes, hepatic differentiation on Matrigel (Examples 2-4); assay type: cell-based; conditions: no feeder cells, 13 days, No. 377 taken as 1
[3] = system: p38 MAP kinase; conditions: cited from earlier work
[4] = system: TGF-β induced epithelial-mesenchymal transformation; conditions: cited from earlier work
[5] = system: human induced hepatic stem cells AFB1-1; experiment: AFP in culture supernatant, hepatic differentiation on Matrigel (Examples 2-4); conditions: no feeder cells, 13 days after seeding
[6] = system: extracellular signal regulated kinase; conditions: cited from earlier work
[7] = system: type I receptor for the osteogenic factor; conditions: cited from earlier work
[8] = system: ALK 4; conditions: cited from earlier work
[9] = system: human induced hepatic stem cells AFB1-1; experiment: AFP in culture supernatant (Example 18); assay type: cell-based; conditions: cell sample No. 705: A-83-01 (0.5 μM at start, 0.1 μM at medium changes)/ReproStem (bFGF-free), no feeder cells, Matrigel
[10] = system: rat iPS cells; conditions: added to a rat iPS cell culture medium; cited from earlier work
[11] = system: human induced hepatic stem cells AFB 1-1; experiment: AFP in culture supernatant, suspension (three-dimensional) culture (Examples 6-10); assay type: cell-based; conditions: cell samples Nos. 473-475: suspension culture, ReproStem (bFGF-free)/Y-27632 5 μM, low-attachment plate, no feeder cells, 7 days after seeding; A-83-01 0.1 μM, OsM 10 ng/mL, DEX 0.1 μM where present
Experimental: The cell pellets were lysed in 1 mL/well of a QIAzol reagent (refer to Table 8B).
Six days after the seeding, the cells were recovered centrifugally and then suspended in 2 mL of a fresh ReproStem (bFGF-free)/Y-27632 (5 μM) supplemented with 10 ng/mL oncostatin M (OsM) and 0.1 μM dexamethasone (DEX), to continue hepatic differentiation culture in the above culture plate. […] The cell pellets were lysed in 1 mL/well of a QIAzol reagent (refer to Table 8B).

[12] = system: human induced hepatic stem cells AFB1-1; experiment: Quantitative RT-PCR, differentiation with TGF-β signaling inhibitors (Example 12); assay type: cell-based; conditions: cell samples Nos. 1545-1549: 0.5 μM inhibitor in ReproStem (bFGF-free), no feeder cells, Matrigel, 13 days after seeding
Experimental: The resultant cell samples are respectively referred to as “Nos. 1545-1549”. No. 1544 was cultured in the absence of any inhibitor. Nos. 1545-1549 were cultured in the presence of the following inhibitors, respectively.
Thirteen days after the seeding, the cells were lysed in 1 mL/well of a QIAzol reagent to prepare the total RNA from the cell lysate using the miRNeasy Mini Kit (Qiagen). The total RNA was subjected to quantitative RT-PCR using the iScript Advanced cDNA synthesis kit, the SsoAdvanced SYBR Green Supremix ([…]), and the CFX96 Real-Time System C1000 Thermal Cycler, all manufactured by Bio-Rad. The quantified genes were ALB, AAT, TTR, AFP, cytokeratin 7 (KRT7), cytokeratin 19 (KRT19), and DLK1 (Delta-like 1 homolog).

[13] = system: phosphorylation of Smad2/3; conditions: cited from earlier work
[14] = system: human induced hepatic stem cells AFB1-1; experiment: AFP in culture supernatant, collagen coat (Example 19); assay type: cell-based; conditions: no feeder cells
[15] = cell sample No. 393: 0.1 μM A-83-01/mTeSR1 + 100 ng/mL bFGF
[16] = cell sample No. 394: 0.1 μM A-83-01/aFGF 10 ng/mL/ReproStem (bFGF-free)

For `Cc1cccc(-c2nn(C(=S)Nc3ccccc3)cc2-c2ccnc3ccccc23)n1` [A-83-01, 3-(6-methyl-2-pyridinyl)-N-phenyl-4-(4-quinolinyl)-1H-pyrazolo-1-carbothioamide], the “AFP yield (culture supernatant)” value ([1]; 6 days after the seeding) was 6,430 ng/mL, the “AFP yield (culture supernatant)” value ([1]; 13 days after the seeding) was 30,900 ng/mL and the AAT expression level [2, 15] was 240. For the same molecule, the AFP expression level [2, 15] was 1,791, the ALB expression level [2, 15] was 1,925 and the DLK1 expression level [2, 15] was 404. The TTR expression level [2, 15] was 2,871, the AAT expression level [2, 16] was 3,812 and the AFP expression level [2, 16] was 12,812. For the same molecule, the AHSG expression level [2, 16] was 14,079, the ALB expression level [2, 16] was 45,698 and the APOA4 expression level [2, 16] was 966. For the same molecule, the DLK1 expression level [2, 16] was 804, the FABP1 expression level [2, 16] was 3,034 and the FGG expression level [2, 16] was 10,138. The FOXA2 expression level [2, 16] was 0.19, the HGF expression level [2, 16] was 11 and the HNF1A expression level [2, 16] was 0.88. For the same molecule, the HNF4A expression level [2, 16] was 0.39, the KRT7 expression level [2, 16] was 37.5 and the NANOG expression level [2, 16] was 0.01. The “OCT3/4 (POU5F1) expression level” value [2, 16] was 0.07, the RBP4 expression level [2, 16] was 4,326 and the SOX2 expression level [2, 16] was 0.08. For the same molecule, the SOX17 expression level [2, 16] was 0.03, the TF expression level [2, 16] was 9,126 and the TTR expression level [2, 16] was 9,113. The “effect on p38 MAP kinase” value [3] was “little or no effect”, the “TGF-β induced epithelial-mesenchymal transformation” value [4] was “inhibits” and the “α-fetoprotein (AFP) in culture supernatant” value (“α-fetoprotein (AFP)” for short) [5, 15] was 3,120 ng/mL. For the same molecule, the “α-fetoprotein (AFP)” value [5, 16] was 14,400 ng/mL, the “effect on the extracellular signal regulated kinase” value [6] was “little or no effect” and the “effect on type I receptor for the osteogenic factor” value [7] was “little or no effect”. For the same molecule, the IC50 [8] was 12 nM, the “AFP expression level (culture supernatant)” value ([9]; 8 days after the seeding) was 5,540 ng/mL and the “AFP expression level (culture supernatant)” value ([9]; 13 days after the seeding) was 2,320 ng/mL. For the same molecule, the “culture of rat iPS cells” value [10] was “allows uniform proliferation and prolonged culture of rat iPS cells without differentiation”, the “α-fetoprotein (AFP)” value [11] was 324 ng/mL and the “AAT expression Ct value” [12] was 23.57. For the same molecule, the “AFP expression Ct value” [12] was 17.21, the “ALB expression Ct value” [12] was 20.95 and the “DLK1 expression Ct value” [12] was 18.15. The “KRT7 expression Ct value” [12] was 20.51, the “KRT19 expression Ct value” [12] was 22.05 and the “TTR expression Ct value” [12] was 16.96. The “GAPDH expression Ct value” ([12]; housekeeping gene) was 14.22, the “phosphorylation of Smad2/3” value [13] was “inhibits” and the “AFP expression level (culture supernatant)” value ([14]; cell sample No. 634: 0.1 μM A-83-01/ReproStem (bFGF-free), collagen plate without Matrigel, 6 days after the seeding) was 2,890 ng/mL. The “AFP expression level (culture supernatant)” value ([14]; cell sample No. 634: 0.1 μM A-83-01/ReproStem (bFGF-free), collagen plate without Matrigel, 14 days after the seeding) was 24,900 ng/mL, the “AFP expression level (culture supernatant)” value ([14]; cell sample No. 637: 0.1 μM A-83-01/ReproStem (bFGF-free), collagen plate coated with Matrigel, 6 days after the seeding) was 3,040 ng/mL and the “AFP expression level (culture supernatant)” value ([14]; cell sample No. 637: 0.1 μM A-83-01/ReproStem (bFGF-free), collagen plate coated with Matrigel, 14 days after the seeding) was 30,000 ng/mL.
